PMC11571207, “Stereorandomized Oncocins with Preserved Ribosome Binding and Antibacterial Activity” (Journal of Medicinal Chemistry, 2024)
Converted amounts (≈) assume the structure as drawn. Non-standard residues stand in square brackets, D forms with d. Residues, ends and D or L forms follow the SMILES beside them.

Experiments:
human red blood cells = experiment: Hemolysis assay, minimum hemolytic concentration; conditions: for Haemolysis on hRBC, MHC: 2.5% human red blood cells (final) in 10 mM phosphate, 150 mM NaCl, pH 7.4, 25 °C, 4 h, visual inspection; for MHC human red blood cells: supplement CSV
S. aureus COL (MRSA) = experiment: microbe, parasite or virus in culture; conditions: for MIC S. aureus, 12.5% MHB / MIC S. aureus, Full MHB: S. aureus COL (MRSA), 16–20 h at 37 °C; for MIC S. aureus, 12.5% MHB: 12.5% Müller–Hinton medium; for MIC S. aureus, Full MHB: full Müller–Hinton medium; for MIC S. aureus COL (MRSA): supplement CSV
Description: (§1) We tested antibacterial effects against the Gram-negative bacteria Escherichia coli, Klebsiella pneumoniae, Pseudomonas aeruginosa, and Acinetobacter baumannii and the Gram-positive methicillin-resistant Staphylococcus aureus (MRSA).
(§2) Bacterial growth assay (Figure S1), transmission electron microscopy (Figure S6), serum stability assay (Figure S7), circular dichroism spectral recording (Figures S8 and S9), antimicrobial and hemolysis activity assays (MIC and MHC), and vesicle leakage assay were carried out as described in earlier publications.[43],[44]
(§3) Minimum inhibitory concentration assay
(§4) Antimicrobial activity was assayed against P. aeruginosa PAO1, K. pneumoniae NCTC418, E. coli W3110, A. baumannii ATCC 19606, methicillin-resistant S. aureus COL (MRSA), and for selected peptides on P. aeruginosa PA14 and the polymyxin-B-resistant derivative PA14 2P4, as well as the clinical isolates ZEM-1A and ZEM9A, K. pneumoniae OXA-48, S. aureus Newman, Enterobacter cloacae and Burkholderia cenocepacia. The minimal inhibitory concentration (MIC) was determined by using broth microdilution method. A colo ny of bacteria was picked and grown in Luria-Bertani (LB) medium overnight at 37°C. For E. coli BW25113 sbmA::kan the medium was supplemented with 25 mg/L of kanamycin. The next day, the culture was then regrown in LB medium to log phase (OD600 = 0.6 to 0.8), which lasted approximately 4 h, and diluted to an OD600 of 0.022 in the desired medium. Stock solutions of 1 mg/mL of the samples were prepared in sterilized milliQ water and diluted to the beginning concentration of 64 μg/mL in 300 μL Mueller Hinton (MH)-medium. The diluted samples were added to first well of 96-well microtiter plate (TPP, untreated, Faust Laborbedarf, AG, Schaffhausen) and diluted serially by ½. Finally, 4 μL of the bacterial suspension was inoculated into the sample solutions (150 μL/well) with a final inoculation of about 5∙10^5 CFU/mL. The plates were then incubated at 37°C for 15-18h. For each assay, sterility (broth only) and growth control (broth with bacterial inoculum, without antibiotics) were checked with two columns in the plate. The next day, 15 μL of 3-(4,5-dimethylthiazol-2-yl)-2,5-diphenyltetrazolium bromide (MTT) was added to each well of the plate, such a way that MIC was defined as the lowest concentration of the peptide that inhibited visible growth of the tested

K. pneumoniae NCTC 418 = experiment: microbe, parasite or virus in culture; conditions: for MIC K. pneumoniae, 12.5% MHB / MIC K. pneumoniae, Full MHB: K. pneumoniae NCTC 418, 16–20 h at 37 °C; for MIC K. pneumoniae, 12.5% MHB: 12.5% Müller–Hinton medium; for MIC K. pneumoniae, Full MHB: full Müller–Hinton medium; for MIC K. pneumoniae NCTC418: supplement CSV
Description: as §1, §2, §3, §4

E. coli W3110 = experiment: microbe, parasite or virus in culture; conditions: for MIC E. coli, 12.5% MHB / MIC E. coli, Full MHB: E. coli W3110, 16–20 h at 37 °C, broth microdilution; for MIC E. coli, 12.5% MHB: 12.5% Müller–Hinton medium; for MIC E. coli, Full MHB: full Müller–Hinton medium; for MIC E. coli W3110: supplement CSV
Description: as §1, §2, §3, §4

P. aeruginosa PAO1 = experiment: microbe, parasite or virus in culture; conditions: for MIC P. aeruginosa, 12.5% MHB / MIC P. aeruginosa, Full MHB: P. aeruginosa PAO1, 16–20 h at 37 °C; for MIC P. aeruginosa, 12.5% MHB: 12.5% Müller–Hinton medium; for MIC P. aeruginosa, Full MHB: full Müller–Hinton medium; for MIC P. aeruginosa PAO1: supplement CSV
Description: as §1, §2, §3, §4

A. baumannii ATCC19606 = experiment: microbe, parasite or virus in culture; conditions: for MIC A. baumannii, 12.5% MHB / MIC A. baumannii, Full MHB: A. baumannii ATCC19606, 16–20 h at 37 °C; for MIC A. baumannii, 12.5% MHB: 12.5% Müller–Hinton medium; for MIC A. baumannii, Full MHB: full Müller–Hinton medium; for MIC A. baumannii ATCC19606: supplement CSV
Description: as §1, §2, §3, §4

Row | SMILES | Haemolysis on hRBC, MHC (human red blood cells) [µg/mL] | MHC human red blood cells (human red blood cells) [µg/mL] | MIC S. aureus, 12.5% MHB (S. aureus COL (MRSA)) | MIC S. aureus, Full MHB (S. aureus COL (MRSA)) | MIC S. aureus COL (MRSA) (S. aureus COL (MRSA); 12.5% MH pH 7.4) [µg/mL] | MIC S. aureus COL (MRSA) (S. aureus COL (MRSA); full MH pH 7.4) [µg/mL] | MIC K. pneumoniae, 12.5% MHB (K. pneumoniae NCTC 418) [µg/mL] | MIC K. pneumoniae, Full MHB (K. pneumoniae NCTC 418) [µg/mL] | MIC K. pneumoniae NCTC418 (K. pneumoniae NCTC 418; 12.5% MH pH 7.4) [µg/mL] | MIC K. pneumoniae NCTC418 (K. pneumoniae NCTC 418; full MH pH 7.4) [µg/mL] | MIC E. coli, 12.5% MHB (E. coli W3110) [µg/mL] | MIC E. coli, Full MHB (E. coli W3110) [µg/mL] | MIC E. coli W3110 (E. coli W3110; 12.5% MH pH 7.4) [µg/mL] | MIC E. coli W3110 (E. coli W3110; full MH pH 7.4) [µg/mL] | MIC P. aeruginosa, 12.5% MHB (P. aeruginosa PAO1) [µg/mL] | MIC P. aeruginosa, Full MHB (P. aeruginosa PAO1) [µg/mL] | MIC P. aeruginosa PAO1 (P. aeruginosa PAO1; 12.5% MH pH 7.4) [µg/mL] | MIC P. aeruginosa PAO1 (P. aeruginosa PAO1; full MH pH 7.4) [µg/mL] | MIC A. baumannii, 12.5% MHB (A. baumannii ATCC19606) [µg/mL] | MIC A. baumannii, Full MHB (A. baumannii ATCC19606) [µg/mL] | other results
1 | CC[C@H](C)[C@H](NC(=O)[C@H](CCCNC(=N)N)NC(=O)[C@H](CCCNC(=N)N)NC(=O)[C@@H]1CCCN1C(=O)[C@@H]1CCCN1C(=O)[C@H](CCCNC(=N)N)NC(=O)[C@@H]1CCCN1C(=O)[C@H](CCCNC(=N)N)NC(=O)[C@@H]1CCCN1C(=O)[C@H](CC(C)C)NC(=O)[C@H](Cc1ccc(O)cc1)NC(=O)[C@@H]1CCCN1C(=O)[C@H]1CCCN1C(=O)[C@H](CCCCN)NC(=O)[C@H](CC(=O)O)NC(=O)[C@@H](N)C(C)C)C(=O)N[C@@H](Cc1ccc(O)cc1)C(=O)N[C@@H](CC(N)=O)C(=O)N[C@@H](CCCNC(=N)N)C(N)=O [DP4-Onc] (H-VDK[dP]PYLPRPRPPRRIYNR-NH2) | >1000 | >1000 | >64 / 64 μg/mL | >64 / 64 μg/mL | 64 (≈ 26.8 µM) | >64 | 4 (≈ 1.67 µM) | 32 (≈ 13.4 µM) | 4 (≈ 1.67 µM) | 32 (≈ 13.4 µM) | 4 (≈ 1.67 µM) | 16 (≈ 6.69 µM) | 4 (≈ 1.67 µM) | 16 (≈ 6.69 µM) | > 16 | > 64 | >16 | >64 | 8 (≈ 3.35 µM) | 64 (≈ 26.8 µM) | MIC A. baumannii ATCC19606 (A. baumannii ATCC19606; 12.5% MH pH 7.4): 8 µg/mL (≈ 3.35 µM); MIC A. baumannii ATCC19606 (A. baumannii ATCC19606; full MH pH 7.4): 64 µg/mL (≈ 26.8 µM)
2 | CC[C@H](C)[C@H](NC(=O)[C@H](CCCNC(=N)N)NC(=O)[C@H](CCCNC(=N)N)NC(=O)[C@@H]1CCCN1C(=O)[C@@H]1CCCN1C(=O)[C@H](CCCNC(=N)N)NC(=O)[C@@H]1CCCN1C(=O)[C@H](CCCNC(=N)N)NC(=O)[C@@H]1CCCN1C(=O)[C@H](CC(C)C)NC(=O)[C@H](Cc1ccc(O)cc1)NC(=O)[C@H]1CCCN1C(=O)[C@@H]1CCCN1C(=O)[C@H](CCCCN)NC(=O)[C@H](CC(=O)O)NC(=O)[C@@H](N)C(C)C)C(=O)N[C@@H](Cc1ccc(O)cc1)C(=O)N[C@@H](CC(N)=O)C(=O)N[C@@H](CCCNC(=N)N)C(N)=O [DP5-Onc] (H-VDKP[dP]YLPRPRPPRRIYNR-NH2) | >1000 | >1000 | >64 / 64 μg/mL | >64 / 64 μg/mL | 64 (≈ 26.8 µM) | >64 | > 16 | > 64 | >16 | >64 | 4 (≈ 1.67 µM) | 32 (≈ 13.4 µM) | 4 (≈ 1.67 µM) | 32 (≈ 13.4 µM) | > 16 | > 64 | >16 | >64 | 16 (≈ 6.69 µM) | > 64 | MIC A. baumannii ATCC19606 (A. baumannii ATCC19606; 12.5% MH pH 7.4): 16 µg/mL (≈ 6.69 µM); MIC A. baumannii ATCC19606 (A. baumannii ATCC19606; full MH pH 7.4): >64 µg/mL
3 | CC[C@H](C)[C@H](NC(=O)[C@H](CCCNC(=N)N)NC(=O)[C@H](CCCNC(=N)N)NC(=O)[C@@H]1CCCN1C(=O)[C@@H]1CCCN1C(=O)[C@H](CCCNC(=N)N)NC(=O)[C@@H]1CCCN1C(=O)[C@H](CCCNC(=N)N)NC(=O)[C@H]1CCCN1C(=O)[C@H](CC(C)C)NC(=O)[C@H](Cc1ccc(O)cc1)NC(=O)[C@@H]1CCCN1C(=O)[C@@H]1CCCN1C(=O)[C@H](CCCCN)NC(=O)[C@H](CC(=O)O)NC(=O)[C@@H](N)C(C)C)C(=O)N[C@@H](Cc1ccc(O)cc1)C(=O)N[C@@H](CC(N)=O)C(=O)N[C@@H](CCCNC(=N)N)C(N)=O [DP8-Onc] (H-VDKPPYL[dP]RPRPPRRIYNR-NH2) | >1000 | >1000 | >64 / 64 μg/mL | >64 / 64 μg/mL | 64 (≈ 26.8 µM) | >64 | 16 (≈ 6.69 µM) | > 64 | 16 (≈ 6.69 µM) | >64 | 4 (≈ 1.67 µM) | 32 (≈ 13.4 µM) | 4 (≈ 1.67 µM) | 32 (≈ 13.4 µM) | 16 (≈ 6.69 µM) | > 64 | 16 (≈ 6.69 µM) | >64 | 16 (≈ 6.69 µM) | > 64 | MIC A. baumannii ATCC19606 (A. baumannii ATCC19606; 12.5% MH pH 7.4): 16 µg/mL (≈ 6.69 µM); MIC A. baumannii ATCC19606 (A. baumannii ATCC19606; full MH pH 7.4): >64 µg/mL
4 | CC[C@H](C)[C@H](NC(=O)[C@H](CCCNC(=N)N)NC(=O)[C@H](CCCNC(=N)N)NC(=O)[C@@H]1CCCN1C(=O)[C@@H]1CCCN1C(=O)[C@H](CCCNC(=N)N)NC(=O)[C@H]1CCCN1C(=O)[C@H](CCCNC(=N)N)NC(=O)[C@@H]1CCCN1C(=O)[C@H](CC(C)C)NC(=O)[C@H](Cc1ccc(O)cc1)NC(=O)[C@@H]1CCCN1C(=O)[C@@H]1CCCN1C(=O)[C@H](CCCCN)NC(=O)[C@H](CC(=O)O)NC(=O)[C@@H](N)C(C)C)C(=O)N[C@@H](Cc1ccc(O)cc1)C(=O)N[C@@H](CC(N)=O)C(=O)N[C@@H](CCCNC(=N)N)C(N)=O [DP10-Onc] (H-VDKPPYLPR[dP]RPPRRIYNR-NH2) | >1000 | >1000 | >64 / >64 μg/mL | >64 / >64 μg/mL | >64 | >64 | 4 (≈ 1.67 µM) | 32 (≈ 13.4 µM) | 4 (≈ 1.67 µM) | 32 (≈ 13.4 µM) | 4 (≈ 1.67 µM) | 16 (≈ 6.69 µM) | 4 (≈ 1.67 µM) | 16 (≈ 6.69 µM) | 16 (≈ 6.69 µM) | > 64 | 16 (≈ 6.69 µM) | >64 | 8 (≈ 3.35 µM) | 64 (≈ 26.8 µM) | MIC A. baumannii ATCC19606 (A. baumannii ATCC19606; 12.5% MH pH 7.4): 8 µg/mL (≈ 3.35 µM); MIC A. baumannii ATCC19606 (A. baumannii ATCC19606; full MH pH 7.4): 64 µg/mL (≈ 26.8 µM)
